Source: patent US6399561B1, “Methods and compositions for bleaching a dye in solution” (Novozymes A/S, priority 1998, dated 2002)

Tests used:
Format in all cases: biochemical
[1] = test system: Recombinant Myceliophthora thermophila laccase (rMtL); assay: Bleaching of methyl orange using rMtL and NOH-type enhancing agents (initial bleaching rate); conditions: rMtL solution diluted 1:300, 0.2 mM mediator, 30° C., large negative numbers = best performance
Method: (§1) Britton-Robinson buffer is composed of:
(§2) Methyl orange (Merck, Germany)
(§3) Reactions were started by addition of enzyme. Absorbance at 464 nm was followed for 3 minutes (readings every 5 seconds) on a Cobas Fara at 30° C. Initial bleaching rates were determined from the first linear part of the progress curves.
(§4) The N—OH compounds listed above were tested as laccase mediators in bleaching of methyl orange with three recombinant laccases (rPpL, rMtL and rCcL) at various pH values. Large negative numbers represent the best performance.

[2] = molecular target: T1, Polyporus pinsitus laccase (Trametes villosa, UniProt Q99044); assay: Bleaching of methyl orange with laccase and -NOH-CO- type mediators (microtitre plate, end-point absorbance)
T1 construct: made in house
T1 sequence (Q99044 22-520): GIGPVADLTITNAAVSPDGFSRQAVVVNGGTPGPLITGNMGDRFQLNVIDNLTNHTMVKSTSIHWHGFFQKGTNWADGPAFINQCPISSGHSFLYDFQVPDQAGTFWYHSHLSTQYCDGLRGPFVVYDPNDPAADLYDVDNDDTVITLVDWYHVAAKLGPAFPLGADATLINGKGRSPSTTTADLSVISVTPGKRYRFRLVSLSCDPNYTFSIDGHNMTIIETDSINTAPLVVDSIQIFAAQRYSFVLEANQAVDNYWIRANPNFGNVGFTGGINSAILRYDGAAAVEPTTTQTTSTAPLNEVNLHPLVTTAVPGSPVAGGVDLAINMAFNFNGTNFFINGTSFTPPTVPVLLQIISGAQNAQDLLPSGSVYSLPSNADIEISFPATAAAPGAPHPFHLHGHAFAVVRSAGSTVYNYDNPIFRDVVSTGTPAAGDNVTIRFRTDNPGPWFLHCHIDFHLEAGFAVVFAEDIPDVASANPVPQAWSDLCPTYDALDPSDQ
Method: Polyporus pinsitus laccase as described in Example 1.
as §2
50 μl 0.1 mg/ml methyl orange
125 μl 0.1 M Britton-Robinson buffer (see example 1)
(§5) 25 μl 2 mM mediator or water (as reference)
50 μl laccase dilution (1:400)
Methyl orange, buffer and mediator are mixed in a microtitre plate and the reaction is started by addition of laccase. Absorbance is measured at 450 nm after 15 min.
N-Hydroxyacetanilide and N-(4-cyanophenyl)-N-hydroxyacetamide were tested as mediators in bleaching of methyl orange with a laccase at pH 4-6. Low values represent the best performance.

[3] = molecular target: T1, Polyporus pinsitus laccase; assay: Bleaching of methyl orange using rPpL and NOH-type enhancing agents (initial bleaching rate); conditions: rPpL solution diluted 1:200, 0.2 mM mediator, 30° C., large negative numbers = best performance
Method: as §1, §2, §3, §4

[4] = test system: Recombinant Coprinus cinereus laccase (rCcL); assay: Bleaching of methyl orange using rCcL and NOH-type enhancing agents (initial bleaching rate); conditions: for Initial changes per minute in A464 nm of methyl orange using rCcL: rCcL solution diluted 1:200, 0.2 mM mediator, 30° C., large negative numbers = best performance
Method: as §1, §2, §3, §4

[5] = molecular target: T1, Polyporus pinsitus laccase; assay: Bleaching of various dyes with laccase and N-Hydroxyacetanilide (microtitre plate, end-point absorbance); conditions: + enzyme + mediator, pH 5, laccase dilution 1:400, low values = best performance
Method: Polyporus pinsitus laccase as described in Example 1, except that the concentration is 1726 LACU/ml.
125 μl 0.1 M Britton-Robinson buffer, pH 5 (see example 1)
as §5
50 μl laccase dilution (1:400) or water (as reference)
Dye, buffer and mediator are mixed in a micro-titre plate and the reaction is started by addition of laccase. Absorbance is measured at 595 nm after 5 min.
N-Hydroxyacetanilide was used as mediator in bleaching of various dyes with a laccase. Low values represent the best performance.

[6] = pH 4, laccase dilution 1:400, low values = best performance
[7] = pH 5, laccase dilution 1:400, low values = best performance
[8] = pH 6, laccase dilution 1:400, low values = best performance

| SMILES | Initial changes per minute in A464 nm of methyl orange using rMtL ([1]; pH 4) | Initial changes per minute in A464 nm of methyl orange using rMtL ([1]; pH 5) | Initial changes per minute in A464 nm of methyl orange using rMtL ([1]; pH 6) | Initial changes per minute in A464 nm of methyl orange using rMtL ([1]; pH 7) | Absorbance measured at 450 nm after 15 minutes [2, 6] | Absorbance measured at 450 nm after 15 minutes [2, 7] | Absorbance measured at 450 nm after 15 minutes [2, 8] | Initial changes per minute in A464 nm of methyl orange using rPpL ([3]; pH 4) | Initial changes per minute in A464 nm of methyl orange using rPpL ([3]; pH 5) | Initial changes per minute in A464 nm of methyl orange using rPpL ([3]; pH 6) | Initial changes per minute in A464 nm of methyl orange using rPpL ([3]; pH 7) | Initial changes per minute in A464 nm of methyl orange using rCcL ([4]; pH 4) | Initial changes per minute in A464 nm of methyl orange using rCcL ([4]; pH 5) | Initial changes per minute in A464 nm of methyl orange using rCcL ([4]; pH 6) | Initial changes per minute in A464 nm of methyl orange using rCcL ([4]; pH 7) | Initial changes per minute in A464 nm of methyl orange using rCcL ([4]; pH 8) | further results |
| --- | --- | --- | --- | --- | --- | --- | --- | --- | --- | --- | --- | --- | --- | --- | --- | --- | --- |
| CC(=O)N(O)c1ccccc1 [N-hydroxyacetanilide, N-Hydroxyacetanilide] | −1.306 per minute | −1.847 per minute | −0.630 per minute | −0.101 per minute | 0.077 | 0.068 | 0.087 | −4.743 per minute | −6.528 per minute | −1.837 per minute | −0.055 per minute | −0.521 per minute | −0.719 per minute | −0.674 per minute | −0.498 per minute | −0.136 per minute | bleaching of methyl orange, result in words ([4]; summary of Tables 1-3 (rCcL, rMtL and rPpL, various pH)): surprisingly good compared with the other N—OH types enhancing agents; Absorbance measured at 595 nm after 5 minutes ([5]; dye Acid blue 45): 0.123; Absorbance measured at 595 nm after 5 minutes ([5]; dye Acid blue 113): 0.062; Absorbance measured at 595 nm after 5 minutes ([5]; dye CSB): 0.207; Absorbance measured at 595 nm after 5 minutes ([5]; dye Cibacron Marine): 0.235 |
| CC(=O)N(O)c1ccc(C#N)cc1 [N-(4-cyanophenyl)-N-hydroxyacetamide] | – | – | – | – | 0.065 | 0.055 | 0.083 | – | – | – | – | – | – | – | – | – | bleaching a dye in solution, result in words ([2]; laccase, pH 4-6): as effective as N-Hydroxyacetanilide |
| [O-][n+]1ccc2ccccc2c1 [Iso-quinoline-N-oxide] | −0.017 per minute | −0.010 per minute | −0.004 per minute | 0.000 per minute | – | – | – | −0.074 per minute | −0.037 per minute | −0.014 per minute | −0.002 per minute | −0.002 per minute | −0.005 per minute | −0.008 per minute | −0.010 per minute | −0.004 per minute | – |
| CC[n+]1ccc(-c2ccc(S(=O)(=O)[O-])cc2)o1.O [2-Ethyl-5-phenylisoxazolium-4′-sulfonate, H2O] | −0.012 per minute | −0.004 per minute | −0.002 per minute | 0.000 per minute | – | – | – | −0.017 per minute | −0.017 per minute | −0.006 per minute | 0.001 per minute | 0.005 per minute | 0.000 per minute | −0.006 per minute | −0.004 per minute | −0.001 per minute | – |
| O=c1c2ccccc2nnn1O [3-hydroxy-1,2,3-benzotriazin-4(3H)-one, 3-Hydroxy-1,2,3-benzotriazin-4(3H)-one] | −0.016 per minute | −0.011 per minute | −0.001 per minute | 0.002 per minute | – | – | – | −0.020 per minute | −0.020 per minute | −0.008 per minute | 0.000 per minute | 0.004 per minute | −0.004 per minute | −0.011 per minute | −0.008 per minute | −0.002 per minute | – |
